Laboratory results taken from patent US20080020068A1, “Use Of Trisubstituted Benzopyranones” (Dr.Willmar Schwabe GmbH & Co. KG, priority 2004, published 2008).
Marks after values point to notes of the source that are not given here.

Columns and labels:
[1] = tested on: autoxidation of lipids (brain tissue of male mice); experiment: Inhibition of autoxidation of lipids in mouse brain homogenate (chemiluminescence); assay type: biochemical, mice (NMRI); settings: chemiluminescence over 60 minutes, vs solvent control
Text: The autoxidation of lipids is associated with the emission of light. The determination of this extraordinarily weak chemiluminescence can be used for both quantifying peroxides and evaluating the efficacy of antioxidants. Brain tissue of male mice (NMRI; 20-30 g; Centre d'Elevage Janvier, Le Genest-Saint Isle, France) served as lipid-rich tissue in the present investigations. After its extraction the brain was washed with ice-cold phosphate-buffered physiological saline solution (PBS, pH 7.4) and freed from meninges and residual blood. The tissue samples were homogenised with 4 times their volume (v/w) made up of PBS and centrifugated at 1000×g and 4° C. for 10 minutes. The supernatants were immediately diluted with the same buffer to 3 times their volume and stored on ice. 250 μl of the diluted supernatant was transferred into a test tube and incubated for 10 minutes at 37° C. in a 6-channel luminometer (Multi-Biolumat LB 9505 C, Berthold, Bad Wildbad). After adding 25 μl of compound II in PBS added with 2.5% DMSO the incubation was continued for further 10 minutes. Then the intensity of the chemiluminescence (CL) was determined over a period of 60 minutes. The percentage of the inhibition of the autoxidation was calculated in comparison to the solvent control (PBS added with 2.5% DMSO) measured simultaneously. […]

IL-1β = experiment: Synthesis of IL-1β in LPS-stimulated activated murine peritoneal macrophages; assay type: cell-based, mouse; settings: for IL-1β: LPS 1 μg/ml, 24 h, average of three parallel tests; for IL-1β Effect (%): percentage change vs solvent control
Experimental: (§1) The influence of compound II on the synthesis of the proinflammatory cytokines IL-1β, TNF-α and IL-6 was determined by using activated murine peritoneal macrophages. In order to recover the activated macrophages 3×10^9 killed coryn bacterium parvum bacteria (Changzhou Yanshen Co. Ltd., Changzhou, China) in 0.5 ml PBS were injected intraperitoneally into male NMRI mice (Centre d'Elevage Janvier, Le Genest-Saint Isle, France). 6 days later the abdominal cavity was rinsed with 2.5 ml Hanks' balanced saline solution (HBSS) free of calcium and magnesium added with 10 U/ml heparine. The cells were resuspended at a concentration of 2×10^6 cells/ml in complete RPMI medium supplemented with 10% fetal bovine serum. […] cell suspension were filled into the wells of 96-well microtiter plates, respectively. After an incubation period of 2 h non-adherent cells were removed and the remaining cell lawn was washed twice with culture medium (37° C.). The macrophages were preincubated for 30 min. with compound II and then the synthesis of proinflammatory cytokines was induced by adding 1 μg/ml lipopolysaccharide of E. coli (serotype 0127:B8, Sigma, Deisenhofen). After incubating for 24 h (37° C., 5% CO2 in air) the cells were lysed by freezing and thawing for three times, the cell supernatants were recovered and frozen at −80° C. until analysed. The determination of the cytokine concentration in the cell supernatant was effected by means of commercial test kits (Duosets IL-1β, TNF-α and IL-6, R&D, Wiesbaden) in correspondence with the manufacturer's instructions. All investigations were conducted three times. The influence of compound II on the synthesis of the cytokines was evaluated in comparison to solvent controls (0.1% DMSO in complete RPMI medium) that were tested simultaneously.

TNF-α = experiment: Synthesis of TNF-α in LPS-stimulated activated murine peritoneal macrophages; assay type: cell-based, mouse; settings: for TNF-α: LPS 1 μg/ml, 24 h, average of three parallel tests; for TNF-α Effect (%): percentage change vs solvent control
Experimental: as §1

IL-6 = experiment: Synthesis of IL-6 in LPS-stimulated activated murine peritoneal macrophages; assay type: cell-based, mouse; settings: for IL-6 pg/ml: LPS 1 μg/ml, 24 h, average of three parallel tests; for IL-6 Effect (%): percentage change vs solvent control
Experimental: as §1

lipoxygenase (LO) = target: T1, lipoxygenase (LO) (Homo sapiens, UniProt P09917); experiment: Lipoxygenase activity in human whole blood (cystenyl-LT after A23187); assay type: cell-based; settings: for Cystenyl-LT: A23187 50 μM; for Cystenyl-LT Effect (%): percentage change vs solvent control
T1 construct: endogenous in cells; host or cells: heparinised human whole blood (leukocytes), stimulated with A23187
T1 sequence (P09917 1-674): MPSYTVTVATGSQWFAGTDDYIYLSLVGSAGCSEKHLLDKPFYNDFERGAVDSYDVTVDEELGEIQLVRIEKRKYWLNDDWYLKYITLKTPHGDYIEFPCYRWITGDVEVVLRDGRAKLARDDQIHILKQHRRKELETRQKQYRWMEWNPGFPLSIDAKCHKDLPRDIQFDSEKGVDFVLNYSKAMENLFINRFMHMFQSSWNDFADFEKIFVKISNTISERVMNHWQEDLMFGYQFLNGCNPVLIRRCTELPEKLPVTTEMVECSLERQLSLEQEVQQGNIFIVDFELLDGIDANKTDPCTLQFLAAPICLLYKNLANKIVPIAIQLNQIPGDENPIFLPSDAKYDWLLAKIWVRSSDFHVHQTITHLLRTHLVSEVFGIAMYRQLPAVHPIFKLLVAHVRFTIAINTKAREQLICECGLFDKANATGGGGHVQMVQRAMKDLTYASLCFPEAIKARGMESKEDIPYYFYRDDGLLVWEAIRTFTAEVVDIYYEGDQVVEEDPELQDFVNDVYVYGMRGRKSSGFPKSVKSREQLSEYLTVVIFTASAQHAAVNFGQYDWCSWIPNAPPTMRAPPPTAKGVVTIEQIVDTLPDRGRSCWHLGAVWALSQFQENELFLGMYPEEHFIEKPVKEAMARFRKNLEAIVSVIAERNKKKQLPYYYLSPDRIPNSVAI
Experimental: (§2) Heparinised human whole blood was used for the investigations. 100 μl of whole blood were added into each well of 96-well microtiter plates. Separated plates were used for the determination of the cyclooxygenase-1 (COX1) and lipoxygenase (LO) activiy as well as for the induction of cyclooxygenase-2 (COX2).
(§3) Compound II was diluted in DME medium (DMEM) with 1% of antibiotics/antimycotics solution and 2 mM L-glutamine (Sigma, Deisenhofen) using DMSO (final concentration 0.1%) as solubility promoter. After adding 50 μl of compound II the tests were incubated for 60 min. at 37° C. Subsequently, 50 μl of calciumionophor A23187 (final concentration 50 μM) were added to stimulate the eicosanoid synthesis. After incubating for further 30 min. at 37° C. the microtiter plates were centrifuged for 5 min. at 4° C. with 1500 g. The plasma was pipetted off and frozen at −80° C. until analysed.
(§4) In the plasma samples TXB2, PGE2 and cystenyl leukotrienes (cystenyl-LT) were determined as parameters for the COX1, COX2 and LO activity. For the analysis commercial EIA test kits (TXB2 and PGE2: Caymann/IBL, Hamburg; cystenyl leukotrienes: CAST-2000, Milenia, Bad Nauheim) were used in accordance with the manufacturers' instructions. […] This spectrum of efficacy is to be regarded as extremely advantageous because in the therapeutic use of compound II the side effects typical of COX1 inhibitors, such as gastrointestinal complications (erosions, ulcerations) or hemorrhages due to the inhibition of the thrombocyte aggregation need therefore not to be taken into consideration.

cyclooxygenase-1 (COX1) = target: T2, cyclooxygenase-1 (COX1) (Homo sapiens, UniProt P23219); experiment: Cyclooxygenase-1 activity in human whole blood (TXB2 after A23187); assay type: cell-based; settings: for TXB2: A23187 50 μM; for TXB2 Effect (%): percentage change vs solvent control
T2 construct: endogenous in cells; host or cells: heparinised human whole blood (platelets), stimulated with A23187
T2 sequence (P23219 24-599): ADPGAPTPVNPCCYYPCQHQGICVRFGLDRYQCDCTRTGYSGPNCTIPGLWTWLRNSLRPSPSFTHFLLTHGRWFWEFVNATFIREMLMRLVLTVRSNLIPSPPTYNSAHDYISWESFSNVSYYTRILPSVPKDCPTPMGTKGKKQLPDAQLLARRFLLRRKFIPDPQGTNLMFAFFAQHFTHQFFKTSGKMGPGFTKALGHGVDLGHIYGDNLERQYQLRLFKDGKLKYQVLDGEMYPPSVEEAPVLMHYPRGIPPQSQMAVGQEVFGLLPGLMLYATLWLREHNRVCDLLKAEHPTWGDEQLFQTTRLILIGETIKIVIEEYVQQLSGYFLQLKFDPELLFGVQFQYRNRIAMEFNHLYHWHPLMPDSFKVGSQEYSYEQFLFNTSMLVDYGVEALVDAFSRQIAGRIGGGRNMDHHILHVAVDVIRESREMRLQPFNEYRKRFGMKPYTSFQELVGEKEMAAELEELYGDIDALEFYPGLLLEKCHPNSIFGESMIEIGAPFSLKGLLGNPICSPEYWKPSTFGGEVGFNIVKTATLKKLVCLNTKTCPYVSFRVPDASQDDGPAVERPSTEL
Experimental: as §2, §3, §4

cyclooxygenase-2 (COX2) = target: T3, cyclooxygenase-2 (COX2) (Homo sapiens, UniProt P35354); experiment: Cyclooxygenase-2 activity in human whole blood (PGE2 after aspirin pretreatment and LPS); assay type: cell-based; settings: for PGE2: aspirin pretreated, LPS 10 μg/ml, 18 h; for PGE2 Effect (%): percentage change vs solvent control
T3 construct: to induce the expression of COX2 25 μl of lipopolysaccharide of E. coli; endogenous in cells; host or cells: heparinised human whole blood, aspirin-pretreated, COX2 induced with LPS
T3 sequence (P35354 18-604): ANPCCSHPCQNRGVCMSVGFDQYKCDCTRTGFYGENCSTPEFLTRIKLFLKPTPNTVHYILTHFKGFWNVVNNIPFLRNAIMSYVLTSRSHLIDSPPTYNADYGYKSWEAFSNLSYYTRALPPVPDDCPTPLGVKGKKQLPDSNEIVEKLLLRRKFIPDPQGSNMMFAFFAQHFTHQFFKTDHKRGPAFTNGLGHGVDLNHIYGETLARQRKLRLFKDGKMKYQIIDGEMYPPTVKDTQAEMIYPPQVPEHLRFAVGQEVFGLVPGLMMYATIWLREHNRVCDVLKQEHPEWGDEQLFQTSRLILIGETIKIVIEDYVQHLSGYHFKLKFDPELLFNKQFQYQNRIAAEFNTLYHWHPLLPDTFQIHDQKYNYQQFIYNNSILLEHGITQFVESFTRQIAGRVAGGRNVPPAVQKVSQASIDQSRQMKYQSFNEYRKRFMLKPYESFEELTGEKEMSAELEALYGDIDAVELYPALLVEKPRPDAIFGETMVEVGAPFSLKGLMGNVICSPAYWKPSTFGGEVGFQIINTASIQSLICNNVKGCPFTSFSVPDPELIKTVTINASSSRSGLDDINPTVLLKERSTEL
Experimental: as §2
Then compound II and the solvent (DMEM with 0.1% DMSO), respectively, were added in a volume of 25 μl. Moreover, to induce the expression of COX2 25 μl of lipopolysaccharide of E. coli (serotype 0127:B8, final concentration 10 μg/ml) were added. After incubating for 18 h at 37° C. the plasma was recovered as described above and also stored at −80° C. until analysed.
as §4

[2] = 10 μg/ml (first line so printed, r17-18), human whole blood
[3] = 10 μg/ml (first line so printed, r17-18)
[4] = 10 μg/ml (second line so printed, r19-20), human whole blood
[5] = 10 μg/ml (second line so printed, r19-20)
[6] = 30 μg/ml, human whole blood, average of two parallel tests
[7] = 100 μg/ml, human whole blood, average of two parallel tests

SMILES: O=c1ccc2cc(O)c(O)c(O)c2o1 [Compound II, 6,7,8-Trihydroxy-2H-1-benzopyran-2-one]
- half-maximal inhibitory concentration, autoxidation of lipids [1]: 53 ng/mL
- IL-1β (IL-1β; 10 μg/ml): 3789 pg/mL
- IL-1β Effect (%) (IL-1β; 10 μg/ml): +7%
- IL-1β (IL-1β; 30 μg/ml): 3356 pg/mL
- IL-1β Effect (%) (IL-1β; 30 μg/ml): −6%
- inhibition of the synthesis of IL-1β (in words) (IL-1β; 100 μg/ml): significant inhibition
- IL-1β (IL-1β; 100 μg/ml): 430 pg/mL
- IL-1β Effect (%) (IL-1β; 100 μg/ml): −88* %
- TNF-α (TNF-α; 10 μg/ml): 10050 pg/mL
- TNF-α Effect (%) (TNF-α; 10 μg/ml): +19%
- TNF-α (TNF-α; 30 μg/ml): 10189 pg/mL
- TNF-α Effect (%) (TNF-α; 30 μg/ml): +21%
- inhibition of the synthesis of TNF-α (in words) (TNF-α; 100 μg/ml): significant inhibition
- TNF-α (TNF-α; 100 μg/ml): 6251 pg/mL
- TNF-α Effect (%) (TNF-α; 100 μg/ml): −26* %
- IL-6 pg/ml (IL-6; 10 μg/ml): 23078 pg/mL
- IL-6 Effect (%) (IL-6; 10 μg/ml): −27* %
- IL-6 pg/ml (IL-6; 30 μg/ml): 22519 pg/mL
- IL-6 Effect (%) (IL-6; 30 μg/ml): −28* %
- inhibition of the synthesis of IL-6 (in words) (IL-6; 100 μg/ml): significant inhibition
- IL-6 pg/ml (IL-6; 100 μg/ml): 976 pg/mL
- IL-6 Effect (%) (IL-6; 100 μg/ml): −97* %
- Cystenyl-LT (lipoxygenase (LO); [2]): 3557 pg/mL
- Cystenyl-LT Effect (%) (lipoxygenase (LO); [3]): −51%
- Cystenyl-LT (lipoxygenase (LO); [4]): 5193 pg/mL
- Cystenyl-LT Effect (%) (lipoxygenase (LO); [5]): −28%
- Cystenyl-LT (lipoxygenase (LO); [6]): 2089 pg/mL
- Cystenyl-LT Effect (%) (lipoxygenase (LO); 30 μg/ml): −71%
- Cystenyl-LT (lipoxygenase (LO); [7]): 661 pg/mL
- Cystenyl-LT Effect (%) (lipoxygenase (LO); 100 μg/ml): −91%
- inhibition of the activity of LO (in words) (lipoxygenase (LO); human whole blood): potent inhibition
- TXB2 (cyclooxygenase-1 (COX1); [2]): 7825 pg/mL
- TXB2 Effect (%) (cyclooxygenase-1 (COX1); [3]): −20%
- TXB2 (cyclooxygenase-1 (COX1); [4]): 7278 pg/mL
- TXB2 Effect (%) (cyclooxygenase-1 (COX1); [5]): −26%
- TXB2 (cyclooxygenase-1 (COX1); [6]): 9993 pg/mL
- TXB2 Effect (%) (cyclooxygenase-1 (COX1); 30 μg/ml): +2%
- TXB2 (cyclooxygenase-1 (COX1); [7]): 9115 pg/mL
- TXB2 Effect (%) (cyclooxygenase-1 (COX1); 100 μg/ml): −7%
- effect on the activity of COX1 (in words) (cyclooxygenase-1 (COX1); human whole blood): hardly affected
- PGE2 (cyclooxygenase-2 (COX2); [2]): 3679 pg/mL
- PGE2 Effect (%) (cyclooxygenase-2 (COX2); [3]): −66%
- PGE2 (cyclooxygenase-2 (COX2); [4]): 5499 pg/mL
- PGE2 Effect (%) (cyclooxygenase-2 (COX2); [5]): −49%
- PGE2 (cyclooxygenase-2 (COX2); [6]): 2626 pg/mL
- PGE2 Effect (%) (cyclooxygenase-2 (COX2); 30 μg/ml): −76%
- PGE2 (cyclooxygenase-2 (COX2); [7]): 2232 pg/mL
- PGE2 Effect (%) (cyclooxygenase-2 (COX2); 100 μg/ml): −79%
- inhibition of the activity of COX2 (in words) (cyclooxygenase-2 (COX2); human whole blood): potent inhibition

SMILES: Cc1c(C)c2c(c(C)c1O)CCC(C)(C(=O)O)O2 (centres unmarked) [Trolox, reference compound]
- half-maximal inhibitory concentration, autoxidation of lipids [1]: 1665 ng/mL
